In the supplement of paper PMC11451515:

System: SEM cells
Experiment: cell viability relative to DMSO control; higher = less cytotoxic
Details: 48 h
How it was run: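 Library compounds in DMSO were pin-dosed into 1536-well plates (5 μl) holding NOMO1 or SEM (500 cells/well) or P12-Ichikawa (1000 cells/well) leukemia cells, across an 11-point threefold series of 47 μM to 0.79 nM. Each cell line had been adapted for at least four passages in each medium. CellTiter-Glo One luminescence was read after 48 h at 37°C. Viability is the per-plate percentage relative to DMSO wells, with cell-free wells as background.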

[1] = HPLM + 10% dialyzed FBS, 0.000781 µM
[2] = HPLM + 10% dialyzed FBS, 0.00234 µM
[3] = HPLM + 10% dialyzed FBS, 0.00702 µM
[4] = HPLM + 10% dialyzed FBS, 0.0211 µM
[5] = HPLM + 10% dialyzed FBS, 0.0632 µM
[6] = HPLM + 10% dialyzed FBS, 0.19 µM
[7] = HPLM + 10% dialyzed FBS, 0.569 µM
[8] = HPLM + 10% dialyzed FBS, 1.71 µM
[9] = HPLM + 10% dialyzed FBS, 5.12 µM
[10] = HPLM + 10% dialyzed FBS, 15.4 µM
[11] = HPLM + 10% dialyzed FBS, 46.1 µM
[12] = RPMI 5 mM glucose + 10% dialyzed FBS, 0.000781 µM
[13] = RPMI 5 mM glucose + 10% dialyzed FBS, 0.00234 µM
[14] = RPMI 5 mM glucose + 10% dialyzed FBS, 0.00702 µM
[15] = RPMI 5 mM glucose + 10% dialyzed FBS, 0.0211 µM
[16] = RPMI 5 mM glucose + 10% dialyzed FBS, 0.0632 µM
[17] = RPMI 5 mM glucose + 10% dialyzed FBS, 0.19 µM
[18] = RPMI 5 mM glucose + 10% dialyzed FBS, 0.569 µM
[19] = RPMI 5 mM glucose + 10% dialyzed FBS, 1.71 µM
[20] = RPMI 5 mM glucose + 10% dialyzed FBS, 5.12 µM
[21] = RPMI 5 mM glucose + 10% dialyzed FBS, 15.4 µM
[22] = RPMI 5 mM glucose + 10% dialyzed FBS, 46.1 µM
[23] = RPMI 5 mM glucose + 10% FBS, 0.000781 µM
[24] = RPMI 5 mM glucose + 10% FBS, 0.00234 µM
[25] = RPMI 5 mM glucose + 10% FBS, 0.00702 µM
[26] = RPMI 5 mM glucose + 10% FBS, 0.0211 µM
[27] = RPMI 5 mM glucose + 10% FBS, 0.0632 µM
[28] = RPMI 5 mM glucose + 10% FBS, 0.19 µM
[29] = RPMI 5 mM glucose + 10% FBS, 0.569 µM
[30] = RPMI 5 mM glucose + 10% FBS, 1.71 µM
[31] = RPMI 5 mM glucose + 10% FBS, 5.12 µM
[32] = RPMI 5 mM glucose + 10% FBS, 15.4 µM
[33] = RPMI 5 mM glucose + 10% FBS, 46.1 µM

Structure (SMILES) | cell viability [1] | cell viability [2] | cell viability [3] | cell viability [4] | cell viability [5] | cell viability [6] | cell viability [7] | cell viability [8] | cell viability [9] | cell viability [10] | cell viability [11] | cell viability [12] | cell viability [13] | cell viability [14] | cell viability [15] | cell viability [16] | cell viability [17] | cell viability [18] | cell viability [19] | cell viability [20] | cell viability [21] | cell viability [22] | cell viability [23] | cell viability [24] | cell viability [25] | cell viability [26] | cell viability [27] | cell viability [28] | cell viability [29] | cell viability [30] | cell viability [31] | cell viability [32] | cell viability [33]
NC[C@H]1O[C@H](O[C@@H]2[C@H](O)[C@@H](O[C@H]3O[C@H](CO)[C@@H](O)[C@H](N)[C@H]3O)[C@H](N)C[C@@H]2N)[C@H](O)[C@@H](O)[C@@H]1O | 96.6% | 93.3% | 100% | 24% | 88.6% | 105% | 105% | 96.8% | 105% | 90.1% | 87.3% | 115% | 125% | 124% | 23% | 113% | 83.3% | 107% | 113% | 105% | 104% | 92.4% | – | – | – | – | – | – | – | – | – | – | –
COc1cc2c(cc1OC)CN(CCc1ccc(NC(=O)c3cc(OC)c(OC)cc3NC(=O)c3cnc4ccccc4c3)cc1)CC2 | 116% | 115% | 116% | 123% | 111% | 110% | 123% | 120% | 101% | 69% | 79.6% | 115% | 123% | 114% | 108% | 122% | 123% | 121% | 132% | 103% | 59.9% | 47.9% | – | – | – | – | – | – | – | – | – | – | –
CC(=O)Oc1ccccc1C(=O)Nc1ncc([N+](=O)[O-])s1 | 85.4% | 88.9% | 89% | 91.3% | 84.3% | 107% | 98.3% | 104% | 96.9% | 93.1% | 66.3% | 87.1% | 93% | 99.6% | 100% | 108% | 106% | 101% | 104% | 100% | 94.2% | 82.7% | 85% | 100% | 92.6% | 101% | 90.5% | 107% | 94.7% | 101% | 104% | 85.4% | 79.6%
COc1c(C)c2c(c(O)c1C/C=C(\C)CCC(=O)O)C(=O)OC2 | 92.9% | 104% | 104% | 111% | 113% | 100% | 120% | 111% | 97% | 61.2% | 33.3% | 102% | 104% | 115% | 81.9% | 114% | 108% | 100% | 116% | 108% | 64.8% | 45.6% | 102% | 105% | 114% | 109% | 113% | 102% | 118% | 98.2% | 77% | 48.1% | 29.9%
COc1cccc2c1C(=O)c1c(O)c3c(c(O)c1C2=O)C[C@@](O)(C(=O)CO)C[C@@H]3O[C@H]1C[C@H](N)[C@H](O)[C@H](C)O1 | 96.4% | 103% | 117% | 124% | 105% | 92.4% | 47.5% | 12.9% | 6.97% | 4.92% | 3.63% | 106% | 100% | 108% | 92% | 101% | 69.9% | 40.1% | 9.78% | 5.67% | 3.74% | 2.82% | – | – | – | – | – | – | – | – | – | – | –
C[C@@H]1CCO[C@H]2CN\3/C=C(/C(=O)NCC4=C(F)C=C(F)C=C4)C(=O)\C(=C3C(=O)N12)O | 82.2% | 104% | 85% | 104% | 73.4% | 91.6% | 105% | 103% | 104% | 91.5% | 85.3% | 93.4% | 98.7% | 95.2% | 96.3% | 99.1% | 100% | 107% | 99.3% | 94.6% | 96.7% | 86.6% | 100% | 95.2% | 99.6% | 98.5% | 44.4% | 111% | 104% | 112% | 107% | 85.8% | 88.1%
CCCCCCCCCCCCCC(=O)N[C@H](CO)[C@H](O)c1ccc([N+](=O)[O-])cc1 | 97.4% | 81.4% | 89.5% | 95.4% | 98.9% | 65.1% | 79.7% | 39.8% | 13.8% | 3.54% | 2.38% | 87.3% | 81.9% | 85.2% | 94.3% | 93.1% | 55.2% | 83% | 36% | 8.3% | 4.49% | 2.85% | 99.6% | 76.1% | 89.1% | 103% | 95.5% | 55.4% | 66.5% | 25.1% | 9.49% | 3.9% | 2.41%
COc1cc[nH]c2ncc(C(=O)C(=O)N3CCN(C(=O)c4ccccc4)C[C@H]3C)c1-2 | 89.9% | 87.6% | 77.4% | 90.1% | 58.5% | 82.6% | 92% | 96.8% | 88.8% | 94.2% | 109% | 118% | 109% | 129% | 115% | 84.4% | 102% | 107% | 101% | 102% | 103% | 106% | 115% | 109% | 112% | 116% | 74.2% | 100% | 100% | 103% | 113% | 99.9% | 96.9%
